Reference: patent publication US20250388597A1, “BIFUNCTIONAL PHOTOCROSSLINKING PROBES FOR COVALENT CAPTURE OF PROTEIN-NUCLEIC ACID COMPLEXES IN CELLS” (UNIVERSITY OF SOUTHERN CALIFORNIA, priority 2022, published 2025)
Entries after “also recorded” stand apart in the source; their conditions may differ. One block for each molecule: values may come before it.

Assays:
[1] = system: double stranded DNA and RNA; conditions: cited from earlier work; for efficiency of covalent crosslinking to DNA: long-wavelength (˜360 nm) UV illumination
MEF2A/DNA complex = biological target: T1, MEF2A/DNA complex (Homo sapiens, UniProt Q02078); assay: In vitro photo-crosslinking of assembled MEF2/DNA complex, read on denaturing SDS/urea gel or agarose gel; assay type: biochemical
T1 construct: human MEF2A DBD (residues 2-95); made in house
T1 sequence (Q02078 2-95): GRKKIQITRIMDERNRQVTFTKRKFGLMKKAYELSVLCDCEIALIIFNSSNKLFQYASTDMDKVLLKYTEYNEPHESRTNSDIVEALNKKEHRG
Text: In vitro assays have confirmed the success and the efficiency of the demo probe (AMT-LC-SDA) in crosslinking double strand DNA of various contents and DNA-binding protein human myocyte enhancer factor 2A (MEF2A) (1-95 aa) (FIG. 5C-FIG. 5E). The solid crosslinking is confirmed for the probe with UV photo crosslinking conditions by denaturing or digestive approaches such as running with 8.3 M urea gel, SDS gel, combined with sample with overnight digestion of proteinase K at 65 Celsius and denatured at high temperature of 95 Celsius with SDS loading dye. […] Under these harsh evaluation conditions, the protein got digested on the crosslinking complex thoroughly, yet the remaining crosslinked amino acids residuals still have made the DNA to be in a larger size and shifted clearly compared to other controls, which is indicated by the bold shaped arrow. Agarose gel was also used for its bigger pore size to estimate the crosslinking efficiency (UV 2 hrs), estimated by the amount of the left free DNA, our probe has reached around 30-60% efficiency (FIG. 5E), which is much higher than the UV-initiated protein DNA crosslinking without the use of a probe (10-20%) as reported in Nature Communications, volume 11, Article number: 3019 (2020). […] This further supports the idea of applying this probe for replacement of formaldehyde, it crosslinks the protein only within the proximity of nucleic acids, thereby largely reducing the random protein-protein crosslinking noise and helps to preserve the native state of protein epitopes.
The BFPX probe 4AMT-LC-SDA was synthesized with good yield by the NHS-amine chemistry using psoralen and diazirine derivatives (FIG. 5A, FIG. 5B). To test its photo crosslinking ability, human transcription factor MEF2A (the MADS-box/MEF2 domain) and double strand DNA containing a MEF2 binding site were used. We first used electrophoresis mobility shift assay (EMSA) to validate the activity of the purified recombinant MEF2A DNA-binding domain. After finding out the optimal protein to DNA ratio, the in vitro assembled MEF2/DNA complex was then subject to photocrosslinking in the presence or absence of the 4AMT-LC-SDA probe with or without UV illumination. Multiple other control experiments were carried out in parallel to test the specificity of photocrosslinking between the DNA and MEF2. Specifically, parameters such as protein/DNA amounts (1:[…]), ratio, UV time (10 m to 4 hrs), wavelength (320 to 360 nm), LV source (mercury long lamp, LED) and their distance to the reaction mixture have been optimized along the course. The MEF2 Protein and DNA were incubated first to mimic an in vivo binding mode and stoichiometry, and then the mixture was incubated with our 4AMT-LC-SDA probe to undergo UV illumination. The results were evaluated by running denaturing gels (SDS in FIG. 5D, or Urea in FIG. 5C) against the high temperature denatured reaction mixtures and checking the respective protein (silver stain) or DNA (FAM label) signals. To further rule out any other possible false positiveness during loading, proteinase K digestion was applied to all the samples including the negative controls with SDS at 65 degrees.

NFAT1/DNA complex = biological target: T2, NFAT1/DNA complex (Homo sapiens, UniProt Q13469); assay: In vitro photo-crosslinking of assembled NFAT1/DNA complex, denaturing SDS gel; assay type: biochemical; conditions: for formation of covalent NFAT1/DNA crosslinked complex stable under denaturing SDS-PAGE: probe + UV 365 nm, 2% SDS, boil 10 min
T2 construct: human NFAT1 protein (residue 399-676, NFAT1-DBD)
T2 sequence (Q13469 399-676): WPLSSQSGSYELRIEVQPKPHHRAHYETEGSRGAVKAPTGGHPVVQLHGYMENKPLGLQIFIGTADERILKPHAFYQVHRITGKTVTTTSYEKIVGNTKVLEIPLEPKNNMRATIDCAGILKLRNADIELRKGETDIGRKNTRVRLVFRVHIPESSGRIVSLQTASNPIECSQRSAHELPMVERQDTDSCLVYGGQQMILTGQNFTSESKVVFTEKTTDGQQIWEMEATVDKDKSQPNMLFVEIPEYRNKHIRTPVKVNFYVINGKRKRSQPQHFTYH
Experimental: The probe binding and UV crosslinking were carried out as described in FIG. 5G and FIG. 7. The crosslinked complexes (lane 3 and lane 6) were further treated with DTT (100 mM, heat 50 degree C. for 30 min). The reaction mixtures were run on SDS gel and visualized by FAM fluorescence for DNA (top) and by Coomassie blue stain for protein (bottom) as described in FIG. 7. FIG. 7 depicts denaturing SDS gel analysis of covalent capture of in vitro assembled MEF2/DNA and NFAT1/DNA complexes by the BFPX probe, SPB-AAD. […] The protein/DNA complexes are incubated at room temperature for 30 min, and treated with various combination of BFPX probe (SPB-AAD) and UV illumination as described in FIG. 5G. […] The reaction mixtures were added SDS loading dye (2% SDS), boil for 10 min, and run on SDS gel (Bio-Rad Any Kd gradient gel). The same gel was visualized by FAM fluorescence for DNA (top) and by Coomassie blue stain for protein (bottom). FIG. 8C depicts denaturing SDS gel analysis of covalent capture of in vitro assembled MEF2/DNA and NFAT1/DNA complexes by the BFPX probe, SPB-PEG3-AAD. […] The reaction mixtures were run on SDS gel and visualized by FAM fluorescence for DNA (top) and by Coomassie blue stain for protein (bottom) as described in FIG. 7. […] Typically protein and DNA are mixed to bind at room temperature for 30 min, followed by addition of BFPX probes for an additional 15 min and then UV illumination. In the case of FA treatment, the reaction time is 10 min at room temperature and then quenched by 250 mM glycine. […] The UV illumination (as indicated by a positive sign) was carried out using a LED Chip (21.4 mm×21.4 mm, 365-370 nm, 30 Watt, sample distance 2 cm, exposure time 2-15 min at 4 degree C., here the exposure time is 15 min). […] The small amount of single stranded DNA is due to incomplete annealing. The higher smearing bands are most likely non-specific protein complexes. Neither of these experimental imperfections affected the main conclusion of this experiment because the double stranded-DNA bands and the specific NFAT-DNA complex bands (the middle sharp bands) are well defined and can be monitored without the interference of the other bands. […] The gel was visualized by Cy5 fluorescence for DNA. FIG. 12E depicts further characterization of BFPX crosslinking of NFAT1/DNA complexes using different DNA substrates and staining techniques. Two unlabeled DNA substrates containing a core NFAT-binding site and different flanking bases and sequence lengths ([…] ID NO: 4), 21 mer, c2: [NT] ID NO: 5), 16 mer) were used to bind the NFAT1-DBD as described in FIG. 12C. […] The reactions were then analyzed by SDS PAGE under denaturing condition as described in FIG. 12D. Because the DNA is unlabeled, the gel was stained using either cyanine-based dye (SYBR Safe) or Coomassie Blue stain (CB). […] The different size of the NFAT-c1DNA complexes (lane 2) and NFAT-c2DNA complexes (lane 4) was resolved by loading reactions of lane 2 (2a, 2b and 2c) and lane 4 (4a, 4b and 4c) as triplicates side-by-side on the same gel (lower panel) using either SYBR and CB stain. FIG. 12F depicts time course of BFPX crosslinking of NFAT1/DNA complexes. […] The reactions at different time points were then analyzed on SDS gel as described in FIG. 12D. […] When the UV exposure time is longer than 5 min, a significant amount of crosslinked NFAT-DNA complex can be formed with UV illumination without SPB-AAD.

DNA binding by NFAT1 = biological target: T3, DNA binding by NFAT1 (Homo sapiens, UniProt Q13469); assay: Native EMSA of the effect on DNA binding by NFAT1; assay type: biochemical; conditions: FIG. 12C; increasing concentrations; probes with UV 365 nm 15 min; compared to control lane 3
T3 construct: human NFAT1 protein (residue 399-676, NFAT1-DBD)
T3 sequence (Q13469 399-676): T2 sequence (Q13469 399-676)
Experimental: All binding reactions contain 10 μM 27 mer dsDNA (5′6-FAM labeled) with a NFAT-binding site, and various combinations of NFAT1 protein (14 μM), FA (1% v/v), 4AMT-LC-SDA (20 μM), with or without UV illumination (365 nm, LED, 30 Watt, sample distance 2 cm, exposure time 15 min at 4 degree C.). 10 μl of the binding reaction is run on a 10% PAGE 0.5×TBE gel. The same gel was visualized by FAM fluorescence for DNA (top) and by Coomassie blue stain for protein (bottom). The higher smearing bands in lane 3, 8, 9, and 10 are most likely non-specific protein complexes often seen when an excessive amount of protein is used to ensure all DNA is bound.
The binding reactions were performed in a buffer of 20 mM Hepes pH 7.6, 150 mM NaCl, 1 mM DTT, 12% glycerol. Typically protein and DNA are mixed to bind at room temperature for 30 min, followed by addition of BFPX probes for an additional 15 min and then UV illumination. In the case of FA treatment, the reaction time is 10 min at room temperature and then quenched by 250 mM glycine. When included (as indicated by a positive sign), the binding reaction contains 10 μM 27 mer dsDNA (Cy5-labeled) with a NFAT-binding site (the antigen receptor response element 2, ARRE2, from the IL-2 promoter, 5′-Cy5-[sequence]-3′ (SEQ ID NO: 2), the complementary strand is not labeled), 24 μM of the DNA binding domain (DBD) of human NFAT1 protein (residue 399-676, NFAT1-DBD). The UV illumination (as indicated by a positive sign) was carried out using a LED Chip (21.4 mm×21.4 mm, 365-370 nm, 30 Watt, sample distance 2 cm, exposure time 2-15 min at 4 degree C., here the exposure time is 15 min). Half of the binding reaction (7.5 μl) was run on a 10% PAGE 0.5×TBE gel and visualized by Cy5 fluorescence on DNA. The small amount of single stranded DNA is due to incomplete annealing. The higher smearing bands are most likely non-specific protein complexes. Neither of these experimental imperfections affected the main conclusion of this experiment because the double stranded-DNA bands and the specific NFAT-DNA complex bands (the middle sharp bands) are well defined and can be monitored without the interference of the other bands.
The presence of both DNA and protein in the same shifted band can be checked by the FAM fluorescence signal (top) and Coomassie stain (bottom), respectively (free NFAT is positively charged and not observable under the EMSA condition).

Nkx2.5/DNA complex = biological target: T4, Nkx2.5/DNA complex (Homo sapiens, UniProt P52952); assay: BFPX crosslinking of Nkx2.5/DNA complexes, SDS PAGE; assay type: biochemical; conditions: denaturing SDS PAGE; probes with UV
T4 construct: human Nkx2.5 DBD (the homeodomain); made in house
T4 sequence (P52952 138-197 limits assumed, one chain of several): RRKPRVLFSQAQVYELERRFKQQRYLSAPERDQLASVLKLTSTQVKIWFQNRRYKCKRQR
Experimental: FIG. 12H depicts BFPX crosslinking of Nkx2.5/DNA complexes. […] The various treatment combinations were list above the gel. The reactions were then analyzed by SDS PAGE under denaturing condition as described in FIG. 12D.

p53/DNA complex = biological target: T5, p53/DNA complex (Homo sapiens, UniProt P04637); assay: BFPX crosslinking of p53/DNA complexes, SDS PAGE; assay type: biochemical; conditions: denaturing SDS PAGE; probes with UV; vs no-protein controls
T5 construct: the human tumor suppressor p53 DBD; made in house
T5 sequence (P04637 102-292 limits assumed, one chain of several): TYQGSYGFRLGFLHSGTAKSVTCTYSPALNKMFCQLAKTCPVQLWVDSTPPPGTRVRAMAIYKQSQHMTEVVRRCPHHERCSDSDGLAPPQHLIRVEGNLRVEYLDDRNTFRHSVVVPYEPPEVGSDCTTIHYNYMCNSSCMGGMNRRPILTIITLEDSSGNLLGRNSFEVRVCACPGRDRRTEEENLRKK
Experimental: FIG. 12I depicts BFPX crosslinking of p53/DNA complexes. The binding reactions between the human tumor suppressor p53 DBD and a 37 mer Cy5 labeled DNA containing a consensus p53 tetramer binding site (5′-/5Cy5/-[…]-3′, (SEQ ID NO: 8)) were set up and treated with BFPX probes and UV illumination as described in FIG. 12C. The various treatment combinations were list above the gel. The reactions were then analyzed by SDS PAGE under denaturing condition as described in FIG. 12D. […] Because p53 bind this this DNA substrate as a tetramer, crosslinked p53/DNA complexes may contain one or more p53 protein molecules. While the monomeric p53/DNA complex appears to be the dominant crosslinked protein-DNA complexes, higher-molecule weight species were visible in SDS gel, which may correspond to crosslinked higher-order p53/DNA complex.

NFAT1 DNA binding domain = biological target: T6, NFAT1 DNA binding domain (Homo sapiens, UniProt Q13469 Q13469:399-676); assay: SPB-AAD 100 uM + UV365 photocrosslinking, SDS-PAGE
T6 sequence: T2 sequence (Q13469 399-676)
Experimental: The UV illumination (as indicated by a positive sign) was carried out using a LED Chip (21.4 mm×21.4 mm, 365-370 nm, 30 Watt, sample distance 2 cm, exposure time 2-15 min at 4 degree C., here the exposure time is 15 min). Half of the binding reaction (7.5 μl) was run on a 10% PAGE 0.5×TBE gel and visualized by Cy5 fluorescence on DNA. The small amount of single stranded DNA is due to incomplete annealing. The higher smearing bands are most likely non-specific protein complexes. Neither of these experimental imperfections affected the main conclusion of this experiment because the double stranded-DNA bands and the specific NFAT-DNA complex bands (the middle sharp bands) are well defined and can be monitored without the interference of the other bands.
FIG. 12D depicts the other half of binding reaction from the above experiments (FIG. 12C) were added SDS loading dye (2% SDS), boil for 10 min, and run on SDS gel (4-15% gradient gel). The gel was visualized by Cy5 fluorescence for DNA.
FIG. 12E depicts further characterization of BFPX crosslinking of NFAT1/DNA complexes using different DNA substrates and staining techniques. […] The reactions were then analyzed by SDS PAGE under denaturing condition as described in FIG. 12D. […]

Molecule: Cc1oc2c(C)c3oc(=O)cc(C)c3cc2c1CN [4AMT, 4′-aminomethyltrioxsalen]
efficiency of covalent crosslinking to DNA [1]: up to 80%

formation of covalent MEF2/DNA crosslinked complex (MEF2A/DNA complex; probe + UV, denaturing gel): highly efficient crosslinking | effect of DTT treatment on the crosslinked NFAT-DNA complex (NFAT1/DNA complex; 25 μM probe, DTT 100 mM, 50 degree C., 30 min, FIG. 5H): reduced significantly
Molecule: Cc1oc2c(C)c3oc(=O)cc(C)c3cc2c1CNC(=O)CCSSCCNC(=O)CCC1(C)N=N1 [4AMT-SDAD]
release of crosslinked MEF2/DNA complexes by reductive cleavage (MEF2A/DNA complex; probe 10-100 μM, UV 15 min, 200 mM TCEP at 37° C. overnight): can be released by reductive cleavage of the disulfide bond | formation of covalent NFAT1/DNA crosslinked complex stable under denaturing SDS-PAGE (NFAT1/DNA complex; listed as 4AMT-LC-SDAD): highly efficient crosslinking; also recorded: crosslinked NFAT to its DNA substrate efficiently

Molecule: O=c1ccc2cc3ccoc3cc2o1 [Psoralen, psoralen]
affinity for double stranded DNA and RNA [1]: μM (Kd) affinity | efficiency of covalent crosslinking to DNA [1]: up to 80%

apparent crosslinking efficiency (intensity of the complex band over the total DNA intensity) (NFAT1/DNA complex): 22.5% | crosslinking efficiency normalized against the total protein/DNA complex (NFAT1/DNA complex): ~47% | effect on the binding of NFAT1 to DNA (DNA binding by NFAT1): little or no effect
Molecule: CC1(CCC(=O)NCCCCCC(=O)NCCCCNCCCNC(=O)CCCOc2c3occc3cc3ccc(=O)oc23)N=N1 [SPB-Spermidine-AD, 6-(3-(3-methyl-3H-diazirin-3-yl)propanamido)-N-(4-((3-(4-((7-oxo-7H-furo[3,2-g]chromen-9-yl)oxy)butanamido)propyl)amino)butyl)hexanamide]
formation of covalent NFAT1/DNA crosslinked complex stable under denaturing SDS-PAGE (NFAT1/DNA complex): dosage dependent crosslinking of NFAT1/DNA complexes | crosslinking of the Nkx2.5/DNA complex (Nkx2.5/DNA complex): significant crosslinking of the Nkx2.5/DNA complex | crosslinking of the p53/DNA complex (p53/DNA complex): significant crosslinking of the p53/DNA complex

B1: c1 NFAT 21-mer (dsDNA)
DNA 1: TTCCACAGAGGAAAATTTGTT
DNA 2: AACAAATTTTCCTCTGTGGAA
binding result (NFAT1 DNA binding domain): binds
